Measurements as given in patent US20260364175A1, “COMPOSITIONS FOR DRUG ADMINISTRATION” (Aegis Therapeutics, LLC, priority 2018, published 2026).
“And” between values parts separate entries of the source, which are not always exact repeats. Equal entries are not always repeated. Structures can show the parent of a compound that is named as a salt.

Legend:
[1] = Octreotide pharmacokinetics after s.c. and oral delivery; conditions: for CL/F: po; for t1/2 1: first peak; for t1/2 2: second peak
Description: C prior to administration. […] Death is confirmed by cervical dislocation. […] Euthanasia is confirmed by cervical dislocation.
Pharmacokinetic analyses is carried out as follows.
Serum half-life (t1/2) is determined as follows.

[2] = system: blood glucose; test: Ocular administration of insulin plus absorption enhancer, blood glucose in anesthetized rats; assay type: in vivo, rat (male Sprague-Dawley); conditions: for effect on blood glucose / ocular insulin absorption: 0.5% enhancer with 0.2% insulin eye drops; for Blood Glucose Concentration: 0.5% surfactant, insulin eye drops; for effect on ocular insulin absorption (alkyl chain length comparison): alkylmaltosides with insulin eye drops
[3] = system: blood glucose; test: Ocular administration of glucagon plus surfactant, blood glucose in rats; assay type: in vivo, rat; conditions: for Blood Glucose Concentration: 0.5% surfactant, glucagon eye drops after insulin; for effect on ocular glucagon absorption / blood D-glucose: eye drops, 0.5% surfactant plus glucagon (30 μg)
[4] = Buccal fast-dispersing melatonin tablets in rabbits; conditions: for bioavailability: fast-disintegrating tablet, buccal
Description: Thereafter, the animals return to consciousness. At individual time point over a two hour period, 1 mL blood samples are collected from the central ear artery. […] All samples are stored at −70 °C until assaying for melatonin. Melatonin is measured using a commercial ELISA kit manufactured by GenWay Biotech Inc., San Diego, CA.

[5] = cited from earlier work
[6] = system: blood glucose; test: Intranasal insulin with/without […] TDM, anesthesia-induced hyperglycemia model; assay type: in vivo, mouse
From the text: Intranasal administration of drugs or agents are possible in animal models e.g., mice and rats, although the nasal opening in is very small. […] Hyperglycemic animals were induced by an intraperitoneal (IP) injection containing xylazine-ketamine and blood glucose levels were monitored over a period of time.

[7] = insulin alone intranasal, minus TDM

Work on C[C@@H](O)[C@@H]1NC(=O)[C@H](CCCCN)NC(=O)[C@@H](Cc2c[nH]c3ccccc23)NC(=O)[C@H](Cc2ccccc2)NC(=O)[C@@H](NC(=O)[C@H](N)Cc2ccccc2)CSSC[C@@H](C(=O)N[C@H](CO)[C@@H](C)O)NC1=O (relative stereo) [Octreotide, L-Cysteinamide, D-phenylalanyl-L-cysteinyl-L-phenylalanyl-D-tryptophyl-L-lysyl-L-threonyl-N-[2-hydroxy-1-(hydroxymethyl)propyl]-, cyclic (2→7)-disulfide; [R—(R*, R*)]acetate salt] yielded a CL/F ([1]; mouse, in vivo, 1 mg/kg, oral 3.0% DDM) of 54900 mL/min, a CL/F ([1]; mouse, in vivo, 1 mg/kg, oral […] DDM) of 28400 mL/min and a half-life ([1]; mouse, in vivo, sc, 1 mg/kg) of 41.2 min. The “t1/2 1” value ([1]; oral 0.5% DDM, 1 mg/kg) was 1.56 min, the “t1/2 2” value ([1]; oral 0.5% DDM, 1 mg/kg) was 52.50 min and the AUC1 ([1]; oral 0.5% DDM, 1 mg/kg) was 353.03 ng/mL/min. The AUC2 ([1]; oral 0.5% DDM, 1 mg/kg) was 901.04 ng/mL/min, the t1/2 ([1]; oral 0.5% DDM, 1 mg/kg) was 52.1 min and the t1/2 ([1]; oral 0.5% DDM, 1 mg/kg, listed as octreotide) was 53.1 min and 52.1 min. For the same molecule, the “Cmax1 higher than Cmax2” value ([1]; oral 0.5% Intravail) was “more than 2 fold”, the “t1/2 1” value ([1]; oral 3.0% DDM, 1 mg/kg) was 1.33 min and the “t1/2 2” value ([1]; oral 3.0% DDM, 1 mg/kg) was 22.28 min. It also gave an AUC1 ([1]; oral 3.0% DDM, 1 mg/kg) of 21.50 ng/mL/min, an AUC2 ([1]; oral 3.0% DDM, 1 mg/kg) of 119.74 ng/mL/min and a t1/2 ([1]; oral 3.0% DDM, 1 mg/kg) of 23.6 min. For the same molecule, the “t1/2 1” value ([1]; oral […] DDM, 1 mg/kg) was 0.96 min, the AUC1 ([1]; oral […] DDM, 1 mg/kg) was 97.80 ng/mL/min and the AUC2 ([1]; oral […] DDM, 1 mg/kg) was 132.90 ng/mL/min. For the same molecule, the t1/2 ([1]; oral […] DDM, 1 mg/kg) was 25.8 min, the “t1/2 1” value ([1]; s.c., 1 mg/kg) was 2.04 min and the “t1/2 2” value ([1]; s.c., 1 mg/kg) was 39.15 min. The AUC1 ([1]; s.c., 1 mg/kg) was 38.39 ng/mL/min and the AUC2 ([1]; s.c., 1 mg/kg) was 251.73 ng/mL/min.
With CCCCCCCCCCO[C@@H]1O[C@H](CO)[C@@H](O[C@H]2O[C@H](CO)[C@@H](O)[C@H](O)[C@H]2O)[C@H](O)[C@H]1O [Decyl Maltoside, decyl-β-D-maltoside] the “effect on blood glucose / ocular insulin absorption” value [2] was “maintained in the normoglycemic (80-120 mg/dl) or near-normoglycemic (120-160 mg/dl) range”, the “Blood Glucose Concentration” value ([2]; 80 min) was 110 mg/dL and the “Blood Glucose Concentration” value ([2]; 90 min) was 120 mg/dL. For the same molecule, the “Blood Glucose Concentration” value ([2]; 100 min) was 92 mg/dL, the “Blood Glucose Concentration” value ([2]; 110 min) was 81 mg/dL and the “Blood Glucose Concentration” value ([2]; 120 min) was 87 mg/dL. For the same molecule, the “effect on ocular insulin absorption (alkyl chain length comparison)” value (“effect … (alkyl chain length comparison)” for short) [2] was “less absorption enhancing activity”, the “Blood Glucose Concentration” value ([3]; 130 min) was 95 mg/dL and the “Blood Glucose Concentration” value ([3]; 140 min) was 99 mg/dL. The “Blood Glucose Concentration” value ([3]; 180 min) was 180 mg/dL and the “effect on ocular glucagon absorption / blood D-glucose” value [3] was “increase significantly”.
In the case of CCCCCCCCCCCCCO[C@@H]1O[C@H](CO)[C@@H](O[C@H]2O[C@H](CO)[C@@H](O)[C@H](O)[C@H]2O)[C@H](O)[C@H]1O [Tridecyl Maltoside, tridecyl-β-D-maltoside], the “effect on blood glucose / ocular insulin absorption” value [2] is reported as “effective as absorption enhancers”, the “Blood Glucose Concentration” value ([2]; 40 min) is reported as 100 mg/dL and the “Blood Glucose Concentration” value ([2]; 50 min) is reported as 87 mg/dL. For the same molecule, the “Blood Glucose Concentration” value ([2]; 80 min) was 79 mg/dL, the “Blood Glucose Concentration” value ([2]; 90 min) was 85 mg/dL and the “Blood Glucose Concentration” value ([2]; 100 min) was 76 mg/dL. The “Blood Glucose Concentration” value ([2]; 110 min) was 74 mg/dL, the “Blood Glucose Concentration” value ([2]; 120 min) was 75 mg/dL and the “effect on ocular insulin absorption” value ([2]; […] enhancer with insulin eye drops) was “sustained for the two hour time course of the experiment”. The “effect … (alkyl chain length comparison)” value [2] was “more effective”, the “Blood Glucose Concentration” value ([3]; 130 min) was 82 mg/dL and the “effect on ocular glucagon absorption / blood D-glucose” value [3] was “increase significantly”.
In the case of CCCCCCCOC1O[C@H](CO)[C@@H](O)[C@H](O)[C@H]1O (stereo partly drawn) [heptylglucoside, heptylglucopyranoside], the “effect on blood glucose / ocular insulin absorption” value [2] is reported as “ineffective”.
With CCCCCCOC1O[C@H](CO)[C@@H](O)[C@H](O)[C@H]1O (stereo partly drawn) [hexylglucoside, Hexylglucopyranoside] the “effect on blood glucose / ocular insulin absorption” value [2] was “ineffective”.
With COc1ccc2[nH]cc(CCNC(C)=O)c2c1 [melatonin, 5-methoxy-N-acetyltryptamine] the bioavailability ([4]; with 1% to 2% alkylsaccharide) was “at least 75%”, the bioavailability ([4]; without alkylsaccharide) was “less than 50%” and the “time to maximal concentration vs tablets without alkylsaccharide” value ([4]; with alkylsaccharide) was “approximately one half the time”. The mean elimination half-life ([5]; human, in vivo) was “roughly 45 minutes”, the absolute bioavailability ([5]; oral tablets, normal healthy volunteers (DeMuro et al.)) was “approximately 15%” and the “oral bioavailability (estimated)” value ([5]; oral) was 30-50%.
With CCCCCCCCCOC1O[C@H](CO)[C@@H](O)[C@H](O)[C@H]1O (stereo partly drawn) [nonylglucoside, nonylglucopyranoside] the “effect on blood glucose / ocular insulin absorption” value [2] was “effectively stimulated insulin absorption”, the Blood Glucose ([2]; insulin eye drops + 0.5%, reduced level, time not given) was 150 mg/dL and the Blood Glucose ([2]; insulin eye drops + 0.5%, starting level) was 297 mg/dL.
In the case of CCCCCCCCO[C@@H]1O[C@H](CO)[C@@H](O[C@H]2O[C@H](CO)[C@@H](O)[C@H](O)[C@H]2O)[C@H](O)[C@H]1O [octyl maltoside, Octyl-β-D-maltoside], the “effect … (alkyl chain length comparison)” value [2] is reported as “less absorption enhancing activity”.
Molecule decylsucrose has a Blood Glucose ([2]; insulin eye drops + 0.5%, 120 min) of 164 mg/dL and a Blood Glucose ([2]; insulin eye drops + 0.5%, time 0) of 313 mg/dL.
For dodecylsucrose [Dodecyl Sucrose], the “Blood Glucose Concentration” value ([2]; 40 min) was 120 mg/dL, the “Blood Glucose Concentration” value ([2]; 90 min) was 86 mg/dL and the Blood Glucose ([2]; insulin eye drops + […], 120 min) was 150 mg/dL. For the same molecule, the Blood Glucose ([2]; insulin eye drops + […], time 0) was 335 mg/dL, the “Blood Glucose Concentration” value ([3]; 130 min) was 111 mg/dL and the “Blood Glucose Concentration” value ([3]; 140 min) was 143 mg/dL. The “Blood Glucose Concentration” value ([3]; 150 min) was 202 mg/dL, the “Blood Glucose Concentration” value ([3]; 160 min) was 247 mg/dL and the “Blood Glucose Concentration” value ([3]; 170 min) was 242 mg/dL. For the same molecule, the “Blood Glucose Concentration” value ([3]; 180 min) was 234 mg/dL, the “Blood Glucose Concentration” value ([3]; 190 min) was 211 mg/dL and the “effect on ocular glucagon absorption / blood D-glucose” value [3] was “increase significantly”.
For insulin (Humalog), the “lowest blood glucose level” value ([6]; insulin + […] TDM intranasal, about 60 minute time point (about 30 min after insulin)) was “about 80 mg/dl” and the blood glucose level ([6]; insulin + […] TDM intranasal, from about 75 minute time point) was 80 to 100 mg/dL.
In the case of insulin: insulin, the “return of blood glucose to normoglycemic levels” value [6, 7] is reported as “never return to normoglycemic levels”, the “time after insulin administration at which blood glucose starts to decline” value [6, 7] is reported as “about 110 minutes” and the “time mark at which blood glucose starts to decline” value [6, 7] is reported as about 120 min.
With regular porcine insulin the “effect on blood D-glucose” value ([2]; 0.2% in saline only, no enhancer, eye drops) was “remained elevated”.
